The text below walks through data of ChEMBL document CHEMBL3044642, “Antimycobacterial activity of fractions and isolated compounds from Vetiveria zizanioides” (2012).

In brackets after ≈: the same amount, converted by molar mass.

Assay type in all cases: functional
Experiment [1] has as its system Mycolicibacterium smegmatis. Kind of experiment: Antimycobacterial activity against Mycobacterium smegmatis str. MC2 155 after 24 hr by two-fold serial micro broth dilution method. To be noted: str. MC2 155, 24 h.
For experiment [2], the system named is Mycolicibacterium smegmatis. Kind of experiment: Antimycobacterial activity against quinolones and ciprofloxacin-resistant Mycobacterium smegmatis MDRQ after 24 hr by two-fold serial micro broth dilution method.
The test system of experiment [3] is Mycolicibacterium smegmatis. Kind of experiment: Antimycobacterial activity against rifampicin,amphiciline and kanamycin-resistant Mycobacterium smegmatis MDR-40 after 24 hr by two-fold serial micro broth dilution method. The following applies: MDR-40, 24 h.
Experiment [4] has as its system Mycolicibacterium smegmatis. Kind of experiment: Antimycobacterial activity against rifampicin,tetracycline and chloramphenicol-resistant Mycobacterium smegmatis MDR-R after 24 hr by two-fold serial micro broth dilution method.
The test system of experiment [5] is Mycolicibacterium smegmatis. Kind of experiment: Antimycobacterial activity against lomofloxacin-resistant Mycobacterium smegmatis Lom R5 after 24 hr by two-fold serial micro broth dilution method. The following applies: Lom R5, 24 h.
Experiment [6] relates to Mycolicibacterium smegmatis. Kind of experiment: Antimycobacterial activity against ciprofloxacin,lomofloxacin and norflaxacin-resistant Mycobacterium smegmatis CSC-101 after 24 hr by two-fold serial micro broth dilution method. The following applies: CSC-101, 24 h.

In the case of `CCn1cc(C(=O)O)c(=O)c2ccc(C)nc21` [NALIDIXIC ACID], the MIC in experiment [1] was found to be 0.78 µg/mL (≈ 3.36 µM); in experiment [2], 50 µg/mL (≈ 215 µM); in experiment [3], 50 µg/mL (≈ 215 µM); in experiment [4], 50 µg/mL (≈ 215 µM); in experiment [5] it was 25 µg/mL (≈ 108 µM); in experiment [6], 6.25 µg/mL (≈ 26.9 µM).
Consider `CCCCC#CCCCC#CCCCCO`, for which the MIC in experiment [1] is 125 µg/mL (≈ 567 µM); in experiment [2] it was 250 µg/mL (≈ 1130 µM); in experiment [3] it was 31.2 µg/mL (≈ 142 µM); in experiment [4], 31.2 µg/mL (≈ 142 µM); in experiment [5], over 250 µg/mL; in experiment [6], 62.5 µg/mL (≈ 284 µM).
Turning to `O=C(O)c1cn(C2CC2)c2cc(N3CCNCC3)c(F)cc2c1=O` [CIPROFLOXACIN], the MIC in experiment [1] is 0.78 µg/mL (≈ 2.35 µM); in experiment [2] it was 25 µg/mL (≈ 75.4 µM); in experiment [3], over 25 µg/mL; in experiment [4] it was 3.12 µg/mL (≈ 9.43 µM); in experiment [5] it was 25 µg/mL (≈ 75.4 µM); in experiment [6], 3.12 µg/mL (≈ 9.43 µM).
Regarding `CCn1cc(C(=O)O)c(=O)c2cc(F)c(N3CCNC(C)C3)c(F)c21` (stereo not given) [LOMEFLOXACIN], the minimum inhibitory concentration (MIC) is 0.78 µg/mL (≈ 2.22 µM) in experiment [1]; over 50 µg/mL in experiment [2]; 2.5 µg/mL (≈ 7.12 µM) in experiment [3]; 10 µg/mL (≈ 28.5 µM) in experiment [4]; over 50 µg/mL in experiment [5]; under 1 µg/mL in experiment [6].
For the compound `CC1(C)CCC[C@@]2(C)C(CO)[C@H]3CC[C@H]2C3C1` (stereo not given in full) [HYDROXY JUNEPENE], the MIC was 62.5 µg/mL (≈ 264 µM) in experiment [1]; over 250 µg/mL in experiment [2]; 31.2 µg/mL (≈ 132 µM) in experiment [3]; 62.5 µg/mL (≈ 264 µM) in experiment [4]; over 250 µg/mL in experiment [5]; 125 µg/mL (≈ 529 µM) in experiment [6].
